According to publication PMC8684776, “Discovery and characterization of potent And‐1 inhibitors for cancer treatment” (Clinical and Translational Medicine, 2021):

Key:
[1] = test system: IGROV1 cells; experiment: Immunofluorescence of CtIP recruitment to micro-irradiation induced DSB sites; assay type: cell-based, human; details: 1 µM
Protocol: (§1) Supplementary Figure S1. Identification of novel And-1 inhibitors. […]
siAnd-1. S: S phase. (D) Immunofluorescence assay to detect CtIP and γH2AX foci formation after CH3 […]
IGROV1 cells treated with DMSO, 1 […]
to immunostain γH2AX and CtIP. For each experiment, 50 cells were counted and the percentage of cells with co-localization of γH2AX and CtIP foci was determined. Data represent means ± SEM from three independent experiments. (E) HR reporter assay to detect HR repair efficiency in cells treated with CH3. […]

[2] = Toxicity evaluation of treated mice (body weight, H&E staining of organs)
Protocol: To this end, we subcutaneously implanted IGROV1 or MCF7 cells into nude mice to form ovarian or breast tumors, respectively. The mice with these tumors were then treated with vehicle, 20 mg/kg or 40 mg/kg of CH3 via intraperitoneal injection.
To assess the efficacy of the combination of And‐1 inhibitors and cisplatin in vivo, we treated cisplatin resistant IGROV1 CR xenografts with vehicle, And‐1 inhibitors, cisplatin or a combination of cisplatin and And‐1 inhibitor via intraperitoneal injection.
week old female BALB/c athymic nude mice (CByJ.Cg-Foxn1nu/J, weighting 20-25g, from the Jackson
Laboratory) were inoculated subcutaneously by injecting the OC cells, cisplatin resistant OC cells or
breast cancer cells suspended in 100 µl ice-cold Matrigel/PBS (1:1, V:V; 5 x 10^6/mouse) into the dorsal
flank of each mouse. When the average tumor volume reached 100-150 mm3, the mice were randomized
into subsequent experiment groups. For tumors treated with CH3 only, CH3 was given at 0 mg/kg, 20
mg/kg and 40 mg/kg twice a week for three weeks.
were then given intraperitoneally at 8 mg/kg, 20 mg/kg and 2 mg/kg respectively twice a week for three
During the drug treatment, the tumor volume and body weight were measured.

[3] = test system: IGROV1 cells; experiment: HR reporter assay; assay type: cell-based, human; details: CH3 2 µM or 4 µM
Protocol: as §1
(E) HR reporter assay to detect HR repair efficiency in cells treated with CH3.
IGROV1 cells treated with DMSO, 2 µM or 4 µM of CH3 were subjected to HR reporter assay and the
percentage of GFP-positive cells was determined by flow cytometry 48 h after I-SceI plasmid transfection.
HR efficiency were normalized to those obtained from cells treated with DMSO. Data represent means ±
SEM from three independent experiments. (F) HR reporter assay to detect HR repair efficiency in cells
treated with BZA using approaches as in E.

[4] = test system: IGROV1 cells; experiment: Flow cytometry cell cycle analysis (propidium iodide); assay type: cell-based, human; details: 1 µM, FACS
Excerpt: And‐1 is involved in DNA replication in the S‐phase and is required for the S‐phase progression.[15] We assumed that And‐1 inhibitors should be able to inhibit DNA replication by targeting And‐1.
as §1
Molecular weight of each compound was indicated. (C) Flow cytometry

[5] = test system: MCF7 xenografts; experiment: MCF7 xenograft in nude mice; assay type: in vivo, mouse
Protocol: (§2) (A) Tumours of IGROV1 xenograft treated with vehicle or CH3 (20 or 40 mg/kg/3days intraperitoneally) for 3 weeks. Ruler scale is in centimeters. (B) Growth curves of IGROV1 xenografts. Data are represented as means ± SEM. ****p < 0.0001. (C) IHC staining against acidic nucleoplasmic DNA‐binding protein 1 (And‐1) and cleaved‐caspase3 antibodies of tumor samples from 3 groups of mice. Scale bar: 50 μm. Lower panel, quantification of And‐1and cleaved‐caspase 3 IHC score in tumors treated in A. ****p < 0.0001. (D) Tumors of MCF7 xenograft treated with vehicle or CH3 (20 or 40 mg/kg/3days intraperitoneally) for 3 weeks. Ruler scale is in centimeters. (E) Growth curves of MCF7 xenografts. Data are represented as means ± SEM. ****p < 0.0001. (F) IHC staining against And‐1 and cleaved‐caspase3 antibodies of tumor samples from three treated groups of mice. Scale bar: 50 μm. Lower panel, quantification of And‐1and cleaved‐caspase 3 IHC score in tumors treated in (D). *p < 0.1; **p < 0.01; ***p < 0.001; ****p < 0.0001
(§3) into subsequent experiment groups.
(§4) represent the longest and shortest diameters, respectively. During the drug treatment, the tumor volume
(§5) and body weight were measured. […]

[6] = test system: IGROV1 xenografts; experiment: IGROV1 xenograft in nude mice; assay type: in vivo, mouse
Protocol: as §2, §3, §4, §5

[7] = test system: 60 human tumour cell lines; experiment: NCI-60 one-dose screen, whole panel statistics; assay type: cell-based; details: mean growth percentage against all 60 tumor cell lines, 10 μM
Protocol: The NCI‐60 cell line panel includes 60 human tumour cell lines. The effect of CH3 on tumour cell growth was tested at National Cancer Institute, Developmental Therapeutics Program (NCI‐DTP) by following the protocol as described previously.[47]
We next evaluate the inhibitory efficacy of CH3 against a panel of 60 human cancer cell lines at the NCI‐DTP. […] To further compare the efficacy of CH3 in the inhibition of NCI 60 cells, we examined the inhibitory effects of CH3 on 60 cells by using five doses of CH3.
FIGURE 5 The effect of CH3 treatment in the NCI‐60 human tumor cell line panel. (A) Mean graph display of NCI‐60 cell line screening data for CH3. The presented result is a one‐dose mean graph display of NCI‐60 cell line screening data for CH3 at 10 μM. The number reported for the one‐dose assay is growth relative to the no‐drug control. Bars deflecting to the right of the mean indicate relatively high sensitivity, and bars deflecting to the left of the mean indicate relatively low sensitivity to CH3. Experiments were performed at the NCI‐DTP. (B) Dose–response curves of CH3 for breast and ovarian cell lines from NCI‐60 cell line panel. All cells were tested at the NCI‐DTP in the presence of CH3 at five concentrations (0.01 μM, 0.1 μM, 1 μM, 10 μM and 100 μM). […]

[8] = test system: IGROV1 CR cells; experiment: Clonogenic assay, combination with cisplatin; assay type: cell-based, human
Protocol: Synergy of each combination was indicated as combination index (CI) values. […] (C) Tumors of IGROV1 CR xenograft treated with control (vehicle), cisplatin (8 mg/kg/day intraperitoneally), CH3 (20 mg/kg/3days intraperitoneally), or a combination of CH3 and cisplatin for 3 weeks. Ruler scale is in centimeters. (D) Growth curves of IGROV1 CR xenografts. […] (E) IHC staining against And‐1 antibodies of tumor samples from four treated groups of mice. Scale bar: 50 μm. […] Ruler scale is in centimeters. (G) Growth curves of IGROV1 CR xenografts. […] (H) IHC staining against And‐1 antibodies of tumor samples from four treated groups of mice. Scale bar: 50 μm.

Structure (SMILES): OB1OCc2cc(/C=C/c3ccc(Cl)c(Cl)c3)ccc21 [CH3, (E)‐5‐(3,4‐dichlorostyryl)benzo[c][1,2]oxaborol‐1(3H)‐ol]
- recruitment of CtIP to DSB sites induced by micro‐irradiation [1]: significantly decreased
- toxicity of combination with cisplatin: body weight and organs (heart, liver, kidney, lung) ([2]; IGROV1 CR xenograft mice, cisplatin 8 mg/kg + CH3 20 mg/kg or BZA 2 mg/kg): no obvious systemic toxicity or side effect
- toxicity: body weight; H&E staining of heart, liver, kidney and lung ([2]; xenograft mice, CH3 20 or 40 mg/kg intraperitoneal): did not observe systemic toxicity or obvious side effects
- HR efficiency [3]: profoundly reduced HR efficiency
- percentage of cells in the S‐phase [4]: reduced the percentage of cells in the S‐phase
- And‐1 expression in tumor tissues (IHC) ([5]; MCF7 xenograft tumors): inhibited And‐1 expression
- cleaved caspase‐3 expression in tumor tissues (IHC) ([5]; MCF7 xenograft tumors): induced the expression of cleaved caspase‐3
- tumor growth ([5]; breast MCF7 xenografts, nude mice, 20 mg/kg or 40 mg/kg intraperitoneal, 3 weeks): significantly reduced tumor growth
- And‐1 expression in tumor tissues (IHC) ([6]; IGROV1 xenograft tumors): inhibited And‐1 expression
- cleaved caspase‐3 expression in tumor tissues (IHC) ([6]; IGROV1 xenograft tumors): induced the expression of cleaved caspase‐3
- tumor growth ([6]; ovarian IGROV1 xenografts, nude mice, 20 mg/kg or 40 mg/kg intraperitoneal, 3 weeks): significantly reduced tumor growth
- Growth Percent (Mean) [7]: 1.84%
- synergy with cisplatin to reduce clonogenic capacity [8]: great synergy with cisplatin
